Patent US5767268A, “Sulfuric acid esters of amino sugars” (Hoffmann-La Roche Inc., priority 1995, dated 1998)
Structures can show the parent of a compound that is named as a salt. Where two headings read alike, the source gives them in different places.

Assays:
Factor Xa = molecular target: T1, Factor Xa (Bos taurus, UniProt P00743); experiment: Blood coagulation inhibition: inhibition of Factor Xa in the Chromogen Substrate Test; format: biochemical
T1 sequence (P00743 41-180 limits assumed): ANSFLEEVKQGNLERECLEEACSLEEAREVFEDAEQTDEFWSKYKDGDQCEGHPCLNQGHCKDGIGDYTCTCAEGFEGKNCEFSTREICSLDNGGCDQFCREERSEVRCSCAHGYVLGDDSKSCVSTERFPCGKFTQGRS
Method: (§1) Inhibition of thrombin or Factor Xa in the Chromogen Substrate Test (Teien et al., Thrombosis Research 10, 399-410 (1977)): The determination was effected in a Cobas-Bio centrifugal automatic spectrophotometer. The buffer solution used consisted of 50 mM Tris buffer, 180 mM NaCl, 7.5 mM EDTA Na2, 1% PEG 6000 and 0.02% Tween 80, pH 8.4. The test solution consisted of 50 μl of buffer, 30 μl of antithombin III (1U/ml, Kabi Diagnostica) and 20 μl of plasma which contained various concentrations of test compounds. 30 μl of sample solution and 20 μl of water with 180 μl of thrombin (1U/ml, Thrombin Reagent Roche Basle) were added to the test cuvette in the automatic analyzer. After incubation at 37° C. for 240 seconds, 60 μl of S-2238 (H-D-Phe-Pip-Arg-NH.pNA, Kabi Diagnostica, Mondal, Sweden, 0.75 mM in water) and 20 μl of water were added. The liberation of pNA (p-nitro-aniline) was followed during 60 seconds at 405 nm in 10 second intervals in comparison to water as the blank.
The inhibition of Factor Xa was measured in the same manner using a solution of Factor Xa (2.8 nkat/ml and 2 mM S-2222 (Bz-CO-Ile-Glu-Arg-NH.pNA, Kabi Diagnostica) in water in place of thrombin and, respectively, S-2238.

thrombin = molecular target: T2, thrombin (Homo sapiens, UniProt P00734); format: biochemical
T2 construct: purchased Roche Basle (Thrombin Reagent)
Method: as §1

rat smooth muscle cells = experiment: Antiproliferative activity (ri, relative to heparin) in rat smooth muscle cells; format: cell-based; parameters: key: growth inhibition relative to heparin at 100 μg/ml, same experiment; conditions: 100 μg/ml, 48 h, relative to heparin at 100 μg/ml in the same experiment
Method: Antiproliferative Activity
The antiproliferative activity of a substance is expressed as the ri value which is a comparative value to the corresponding activity of heparin and which was determined in cell cultures as follows: rat smooth muscle cells were applied to cell culture plates in a density of 8×10^3 cells/well (medium: DMEM with 10% FCS. Cultivation at 37° C. and 5% CO2). After 4 hours, the number of adhered cells was determined and the substances to be tested (100 μg/ml, dissolved in H2 O) were added. […] Subsequently, the cells were incubated for 48 h. and thereafter the cell count was determined once more.
The inhibition i of the cell growth, that is, the reduction in the growth rate of the cells in percent compared to the control, was calculated from these values. [formula] the growth rate μbeing calculated as [formula] in which Z is the number of cells and d is the time in days.
Finally, ri --the relative inhibitory activity--which expresses the activity of a substance (at 100 μg/ml) in comparison to the activity of heparin in the same concentration in the same experiment, was calculated: [formula] Blood Coagulation Inhibition

[1] = read-out: Anticoagulative Activity IC50 Factor Xa; with antithrombin III and plasma, S-2222 substrate
[2] = read-out: Anticoagulative Activity IC50 Thrombin; with antithrombin III and plasma, S-2238 substrate, 37° C., pH 8.4
[3] = with antithrombin III and plasma, S-2222 substrate
[4] = with antithrombin III and plasma, S-2238 substrate, 37° C., pH 8.4

| Molecule | IC50 (Factor Xa; [1]) [µM] | IC50 (thrombin; [2]) [µM] | Antiproliferative Activity ri (relative inhibitory activity versus heparin) (rat smooth muscle cells) | IC50 (Factor Xa; with antithrombin III and plasma, S-2222 substrate; read-out: Anticoagulative Activity IC50 Factor Xa) [µM] | IC50 (thrombin; with antithrombin III and plasma, S-2238 substrate, 37° C., pH 8.4; read-out: Anticoagulative Activity IC50 Thrombin) [µM] | Anticoagulative Activity IC50 Factor Xa (Factor Xa; [3]) [µg/mL] | Anticoagulative Activity IC50 Thrombin (thrombin; [4]) [µg/mL] |
| --- | --- | --- | --- | --- | --- | --- | --- |
| O=C(NC[C@H]1O[C@H](OCc2ccccc2)[C@H](NC(=O)c2ccc(NC[C@H](OS(=O)(=O)O)[C@@H](OS(=O)(=O)O)[C@H](OS(=O)(=O)O)[C@@H](COS(=O)(=O)O)OS(=O)(=O)O)c([N+](=O)[O-])c2)[C@@H](OS(=O)(=O)O)[C@@H]1OS(=O)(=O)O)c1ccc(/C=C/c2ccc(C(=O)NC[C@H]3O[C@H](OCc4ccccc4)[C@H](NC(=O)c4ccc(NC[C@H](OS(=O)(=O)O)[C@@H](OS(=O)(=O)O)[C@H](OS(=O)(=O)O)[C@@H](COS(=O)(=O)O)OS(=O)(=O)O)c([N+](=O)[O-])c4)[C@@H](OS(=O)(=O)O)[C@@H]3OS(=O)(=O)O)cc2Cl)cc1 [Example 32, (E)-2-Chloro-stilbene-4,4'-dicarboxylic acid bis-[[benzyl 2,6-didesoxy-2-[4-(2,3,4,5,6-penta-O-sulfo-D-glucit-1-ylamino)-3-nitro-benzoylamino]-3,4-di-O-sulfo-a-D-glucopyranosid-6-yl]-amide] tetradecasodium salt] | > 387 | > 387 | 1.4 | – | – | – | – |
| O=C(NC[C@H]1O[C@H](OCc2ccccc2)[C@H](NC(=O)c2ccc(NC[C@H](OS(=O)(=O)O)[C@@H](OS(=O)(=O)O)[C@H](OS(=O)(=O)O)[C@@H](COS(=O)(=O)O)OS(=O)(=O)O)c([N+](=O)[O-])c2)[C@@H](OS(=O)(=O)O)[C@@H]1OS(=O)(=O)O)c1cccc(C(=O)NC[C@H]2O[C@H](OCc3ccccc3)[C@H](NC(=O)c3ccc(NC[C@H](OS(=O)(=O)O)[C@@H](OS(=O)(=O)O)[C@H](OS(=O)(=O)O)[C@@H](COS(=O)(=O)O)OS(=O)(=O)O)c([N+](=O)[O-])c3)[C@@H](OS(=O)(=O)O)[C@@H]2OS(=O)(=O)O)c1 [Example 33, Isophthalic acid bis-[[benzyl 2,6-didesoxy-2-[4-(2,3,4,5,6-penta-O-sulfo-D-glucit-1-ylamino)-3-nitro-benzoylamino]-3,4-di-O-sulfo-a-D-glucopyranosid-6-yl]-amide] tetradecasodium salt] | > 409 | > 409 | 1.5 | – | – | – | – |
| O=C(N[C@H]1[C@@H](OCc2ccccc2)O[C@H](CN2C(=O)c3ccc4c5c(ccc(c35)C2=O)C(=O)N(C[C@H]2O[C@H](OCc3ccccc3)[C@H](NC(=O)c3ccc(NC[C@H](OS(=O)(=O)O)[C@@H](OS(=O)(=O)O)[C@H](OS(=O)(=O)O)[C@@H](COS(=O)(=O)O)OS(=O)(=O)O)c([N+](=O)[O-])c3)[C@@H](OS(=O)(=O)O)[C@@H]2OS(=O)(=O)O)C4=O)[C@@H](OS(=O)(=O)O)[C@@H]1OS(=O)(=O)O)c1ccc(NC[C@H](OS(=O)(=O)O)[C@@H](OS(=O)(=O)O)[C@H](OS(=O)(=O)O)[C@@H](COS(=O)(=O)O)OS(=O)(=O)O)c([N+](=O)[O-])c1 [Example 34, 2,7-Bis-[benzyl 2,6-didesoxy-2-[3-nitro-4-(2,3,4,5,6-penta-O-sulfo-D-glucit-1-ylamino)-benzoylamino]-3,4-di-O-sulfo-a-D-1 5 glucopyranosid-6-yl]-1,2,3,6,7,8-hexahydro-benzo[lmn][3,8] phenanthroline-1,3,6,8-tetraone tetradecasodium salt] | > 393 | > 393 | 3.9 | – | – | – | – |
| CN(C[C@H](OS(=O)(=O)O)[C@@H](OS(=O)(=O)O)[C@H](OS(=O)(=O)O)[C@@H](COS(=O)(=O)O)OS(=O)(=O)O)c1ccc(C(=O)N[C@H]2[C@@H](OCc3ccccc3)O[C@H](CNC(=O)c3cccc(C(=O)NC[C@H]4O[C@H](OCc5ccccc5)[C@H](NC(=O)c5ccc(N(C)C[C@H](OS(=O)(=O)O)[C@@H](OS(=O)(=O)O)[C@H](OS(=O)(=O)O)[C@@H](COS(=O)(=O)O)OS(=O)(=O)O)c([N+](=O)[O-])c5)[C@@H](OS(=O)(=O)O)[C@@H]4OS(=O)(=O)O)c3)[C@@H](OS(=O)(=O)O)[C@@H]2OS(=O)(=O)O)cc1[N+](=O)[O-] [Example 35, Isophthalic acid bis-[[benzyl 2,6-didesoxy-2-[4-[methyl (2,3,4,5,6-penta-O-sulfo-D-glucit-1-yl)-amino]-3-nitro-benzoylamino]-3,4-di-O-sulfo-a-D-glucopyranosid-6-yl]-amide] tetradecasodium salt] | > 404 | > 404 | 2.5 | – | – | – | – |
| O=C(NC[C@H]1O[C@H](OCc2ccccc2)[C@H](NC(=O)c2ccc(N(CCOS(=O)(=O)O)C[C@H](OS(=O)(=O)O)[C@@H](OS(=O)(=O)O)[C@H](OS(=O)(=O)O)[C@@H](COS(=O)(=O)O)OS(=O)(=O)O)c([N+](=O)[O-])c2)[C@@H](OS(=O)(=O)O)[C@@H]1OS(=O)(=O)O)c1cccc(C(=O)NC[C@H]2O[C@H](OCc3ccccc3)[C@H](NC(=O)c3ccc(N(CCOS(=O)(=O)O)C[C@H](OS(=O)(=O)O)[C@@H](OS(=O)(=O)O)[C@H](OS(=O)(=O)O)[C@@H](COS(=O)(=O)O)OS(=O)(=O)O)c([N+](=O)[O-])c3)[C@@H](OS(=O)(=O)O)[C@@H]2OS(=O)(=O)O)c1 [Example 36, Isophthalic acid bis-[[benzyl 2,6-didesoxy-2-[4-[(2-hydroxysulfonyloxy-ethyl)-2,3,4,5,6-penta-O-sulfo-D-glucit-1-yl)-amino]-3-nitro-benzoylamino]-3,4-di-O-sulfo-a-D-glucopyranosid-6-yl]-amide] hexadecasodium salt] | > 371 | > 371 | 2.1 | – | – | – | – |
| CC(=O)Nc1cc(C(=O)N[C@H]2[C@@H](OCc3ccccc3)O[C@H](CNC(=O)c3cccc(C(=O)NC[C@H]4O[C@H](OCc5ccccc5)[C@H](NC(=O)c5ccc(N(C)C[C@H](OS(=O)(=O)O)[C@@H](OS(=O)(=O)O)[C@H](OS(=O)(=O)O)[C@@H](COS(=O)(=O)O)OS(=O)(=O)O)c(NC(C)=O)c5)[C@@H](OS(=O)(=O)O)[C@@H]4OS(=O)(=O)O)c3)[C@@H](OS(=O)(=O)O)[C@@H]2OS(=O)(=O)O)ccc1N(C)C[C@H](OS(=O)(=O)O)[C@@H](OS(=O)(=O)O)[C@H](OS(=O)(=O)O)[C@@H](COS(=O)(=O)O)OS(=O)(=O)O [Example 37, Isophthalic acid bis-[[benzyl 2-[3-acetylamino-4-[methyl-(2,3,4,5,6-penta-O-sulfo-D-glucit-1-yl)-amino]-benzoylamino]-2,6-didesoxy-3,4-di-O-sulfo-a-D-glucopyranosid-6-yl]-amide] tetradecasodium salt] | – | – | 1.9 | > 401 | > 401 | – | – |
| CC(=O)Nc1cc(C(=O)N[C@H]2[C@@H](OCc3ccccc3)O[C@H](CNC(=O)c3cccc(C(=O)NC[C@H]4O[C@H](OCc5ccccc5)[C@H](NC(=O)c5ccc(N(CCOS(=O)(=O)O)C[C@H](OS(=O)(=O)O)[C@@H](OS(=O)(=O)O)[C@H](OS(=O)(=O)O)[C@@H](COS(=O)(=O)O)OS(=O)(=O)O)c(NC(C)=O)c5)[C@@H](OS(=O)(=O)O)[C@@H]4OS(=O)(=O)O)c3)[C@@H](OS(=O)(=O)O)[C@@H]2OS(=O)(=O)O)ccc1N(CCOS(=O)(=O)O)C[C@H](OS(=O)(=O)O)[C@@H](OS(=O)(=O)O)[C@H](OS(=O)(=O)O)[C@@H](COS(=O)(=O)O)OS(=O)(=O)O [Example 38, Isophthalic acid bis-[[benzyl 2-[3-acetylamino-4-[(2,3,4,5,6-penta-O-sulfo-D-glucit-1-yl)-(2-sulfonyloxy-ethyl)-amino]-benzoylamino]-2,6-didesoxy-3,4-di-O-sulfo-a-D-glucopyranosid-6-yl]-amide] hexadecasodium salt] | > 368 | > 368 | 1.8 | – | – | – | – |
| Biphenyl-4,4'-dicarboxylic acid bis-[[(Z)-benzyl 2,6-didesoxy-3,4-di-O-sulfo-6-(3-desoxy-2,4,5,6-tetra-0-sulfo-D-erythro-hex-2-enonoylamino)-a-D-glucopyranosid-2-yl]-amide] dodecasodium salt [Example 15] | – | – | 1.8 | – | – | > 1000 | > 1000 |
| Heparin [reference compound] | – | – | 1.0 | – | – | 2.7 | 1.9 |
